Reference: paper PMC3399817 (PLoS ONE, 2012)

Experiments:
Experiment in all cases: KINOMEscan
Type in all cases: binding
[1] = target: T1, ACVR1 (Homo sapiens, UniProt Q04771); settings: ACVR1, 1 uM
T1 construct: purchased Ambit KINOMEscan (DiscoverX)
Protocol: (§1) First, we used Ambit's KINOMEscan™ technology to identify those kinases that are inhibited for substrate binding by the compounds, all assayed at 1 μM. Second, we used Invitrogen's SelectScreen® Biochemical Kinase Profiling Service to determine the in vitro IC50s for the compounds against specific kinases.

[2] = target: T2, AKT1 (Homo sapiens, UniProt P31749); settings: AKT1, 1 uM
T2 construct: purchased Ambit KINOMEscan (DiscoverX)
Protocol: as §1

[3] = target: T3, ANKK1 (Homo sapiens, UniProt Q8NFD2); settings: ANKK1, 1 uM
T3 construct: purchased Ambit KINOMEscan (DiscoverX)
Protocol: as §1

[4] = target: T4, AURKB (Homo sapiens, UniProt Q96GD4); settings: 1 uM
T4 construct: purchased Ambit KINOMEscan (DiscoverX)
Protocol: as §1

[5] = target: T5, BMPR2 (Homo sapiens, UniProt Q13873); settings: BMPR2, 1 uM
T5 construct: purchased Ambit KINOMEscan (DiscoverX)
Protocol: as §1

[6] = target: T6, BTK (Homo sapiens, UniProt Q06187); settings: 1 uM
T6 construct: purchased Ambit KINOMEscan (DiscoverX)
Protocol: as §1

[7] = target: T7, CAMK2A (Homo sapiens, UniProt Q9UQM7); settings: 1 uM
T7 construct: purchased Ambit KINOMEscan (DiscoverX)
Protocol: as §1

[8] = target: T8, CDK11 (Homo sapiens, UniProt Q9BWU1); settings: CDK11, 1 uM
T8 construct: purchased Ambit KINOMEscan (DiscoverX)
Protocol: as §1

[9] = target: T9, CDK8 (Homo sapiens, UniProt P49336); settings: CDK8, 1 uM
T9 construct: purchased Ambit KINOMEscan (DiscoverX)
Protocol: as §1

[10] = target: T10, CDKL2 (Homo sapiens, UniProt Q92772); settings: CDKL2, 1 uM
T10 construct: purchased Ambit KINOMEscan (DiscoverX)
Protocol: as §1

[11] = target: T11, DAPK3 (Homo sapiens, UniProt O43293); settings: DAPK3, 1 uM
T11 construct: purchased Ambit KINOMEscan (DiscoverX)
Protocol: as §1

[12] = target: T12, DYRK1A (Homo sapiens, UniProt Q13627); settings: 1 uM
T12 construct: purchased Ambit KINOMEscan (DiscoverX)
Protocol: as §1

[13] = target: T13, EPHB2 (Homo sapiens, UniProt P29323); settings: EPHB2, 1 uM
T13 construct: purchased Ambit KINOMEscan (DiscoverX)
Protocol: as §1

[14] = target: T14, EPHB6 (Homo sapiens, UniProt O15197); settings: EPHB6, 1 uM
T14 construct: purchased Ambit KINOMEscan (DiscoverX)
Protocol: as §1

[15] = target: T15, FGFR3(G697C) (Homo sapiens, UniProt P22607, G697C); settings: 1 uM
T15 construct: purchased Ambit KINOMEscan (DiscoverX)
Protocol: as §1

[16] = target: T16, FGR (Homo sapiens, UniProt P09769); settings: 1 uM
T16 construct: purchased Ambit KINOMEscan (DiscoverX)
Protocol: as §1

[17] = target: T17, HIPK4 (Homo sapiens, UniProt Q8NE63); settings: HIPK4, 1 uM
T17 construct: purchased Ambit KINOMEscan (DiscoverX)
Protocol: as §1

[18] = target: T18, IKK-beta (Homo sapiens, UniProt O14920); settings: 1 uM
T18 construct: purchased Ambit KINOMEscan (DiscoverX)
Protocol: as §1

[19] = target: T19, JNK2 (Homo sapiens, UniProt P45984); settings: JNK2, 1 uM
T19 construct: purchased Ambit KINOMEscan (DiscoverX)
Protocol: as §1

[20] = target: T20, LCK (Homo sapiens, UniProt P06239); settings: 1 uM
T20 construct: purchased Ambit KINOMEscan (DiscoverX)
Protocol: as §1

[21] = target: T21, LOK (Homo sapiens, UniProt O94804); settings: 1 uM
T21 construct: purchased Ambit KINOMEscan (DiscoverX)
Protocol: as §1

[22] = target: T22, MAP3K4 (Homo sapiens, UniProt Q9Y6R4); settings: MAP3K4, 1 uM
T22 construct: purchased Ambit KINOMEscan (DiscoverX)
T22 sequence (Q9Y6R4 whole entry): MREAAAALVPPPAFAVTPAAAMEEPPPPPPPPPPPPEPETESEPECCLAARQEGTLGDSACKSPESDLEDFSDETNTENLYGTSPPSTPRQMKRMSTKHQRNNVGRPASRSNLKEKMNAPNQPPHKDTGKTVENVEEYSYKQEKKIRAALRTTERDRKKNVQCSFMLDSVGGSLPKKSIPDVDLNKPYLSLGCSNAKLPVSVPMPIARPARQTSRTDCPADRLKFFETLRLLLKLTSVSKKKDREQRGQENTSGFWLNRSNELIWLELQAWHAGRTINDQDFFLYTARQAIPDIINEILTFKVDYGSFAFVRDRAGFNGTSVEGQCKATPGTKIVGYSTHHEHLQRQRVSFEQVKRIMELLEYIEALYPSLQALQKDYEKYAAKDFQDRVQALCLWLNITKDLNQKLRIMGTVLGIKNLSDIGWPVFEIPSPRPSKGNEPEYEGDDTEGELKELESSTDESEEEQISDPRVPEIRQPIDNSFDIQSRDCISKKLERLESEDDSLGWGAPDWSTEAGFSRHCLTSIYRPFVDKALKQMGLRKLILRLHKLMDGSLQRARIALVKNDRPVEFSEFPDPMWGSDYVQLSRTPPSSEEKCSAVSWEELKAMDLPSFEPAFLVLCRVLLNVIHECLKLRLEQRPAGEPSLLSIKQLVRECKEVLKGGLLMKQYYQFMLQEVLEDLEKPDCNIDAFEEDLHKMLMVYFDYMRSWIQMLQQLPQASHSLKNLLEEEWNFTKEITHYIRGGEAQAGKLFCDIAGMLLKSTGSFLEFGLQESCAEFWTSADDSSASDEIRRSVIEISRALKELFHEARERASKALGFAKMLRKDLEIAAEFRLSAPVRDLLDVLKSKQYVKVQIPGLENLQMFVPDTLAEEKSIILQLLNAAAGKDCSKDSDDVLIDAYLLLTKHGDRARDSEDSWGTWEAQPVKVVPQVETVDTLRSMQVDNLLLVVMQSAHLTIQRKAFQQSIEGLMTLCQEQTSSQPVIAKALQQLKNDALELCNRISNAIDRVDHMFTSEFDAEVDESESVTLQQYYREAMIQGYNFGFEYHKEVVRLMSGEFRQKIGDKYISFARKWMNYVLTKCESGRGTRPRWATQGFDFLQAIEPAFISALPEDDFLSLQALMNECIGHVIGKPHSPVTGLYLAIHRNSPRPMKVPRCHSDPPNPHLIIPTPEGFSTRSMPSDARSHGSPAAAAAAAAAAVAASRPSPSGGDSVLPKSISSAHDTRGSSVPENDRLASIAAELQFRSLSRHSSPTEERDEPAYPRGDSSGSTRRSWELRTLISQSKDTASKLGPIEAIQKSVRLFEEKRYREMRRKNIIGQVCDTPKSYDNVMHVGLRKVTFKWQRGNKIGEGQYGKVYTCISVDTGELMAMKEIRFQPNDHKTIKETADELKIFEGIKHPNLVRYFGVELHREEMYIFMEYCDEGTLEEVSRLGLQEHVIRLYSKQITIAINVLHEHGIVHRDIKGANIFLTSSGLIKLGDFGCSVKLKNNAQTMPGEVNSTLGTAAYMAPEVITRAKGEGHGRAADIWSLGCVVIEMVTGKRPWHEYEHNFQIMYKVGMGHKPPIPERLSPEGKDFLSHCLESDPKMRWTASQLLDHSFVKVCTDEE
Protocol: as §1

[23] = target: T23, MARK3 (Homo sapiens, UniProt P27448); settings: MARK3, 1 uM
T23 construct: purchased Ambit KINOMEscan (DiscoverX)
T23 sequence (P27448 whole entry): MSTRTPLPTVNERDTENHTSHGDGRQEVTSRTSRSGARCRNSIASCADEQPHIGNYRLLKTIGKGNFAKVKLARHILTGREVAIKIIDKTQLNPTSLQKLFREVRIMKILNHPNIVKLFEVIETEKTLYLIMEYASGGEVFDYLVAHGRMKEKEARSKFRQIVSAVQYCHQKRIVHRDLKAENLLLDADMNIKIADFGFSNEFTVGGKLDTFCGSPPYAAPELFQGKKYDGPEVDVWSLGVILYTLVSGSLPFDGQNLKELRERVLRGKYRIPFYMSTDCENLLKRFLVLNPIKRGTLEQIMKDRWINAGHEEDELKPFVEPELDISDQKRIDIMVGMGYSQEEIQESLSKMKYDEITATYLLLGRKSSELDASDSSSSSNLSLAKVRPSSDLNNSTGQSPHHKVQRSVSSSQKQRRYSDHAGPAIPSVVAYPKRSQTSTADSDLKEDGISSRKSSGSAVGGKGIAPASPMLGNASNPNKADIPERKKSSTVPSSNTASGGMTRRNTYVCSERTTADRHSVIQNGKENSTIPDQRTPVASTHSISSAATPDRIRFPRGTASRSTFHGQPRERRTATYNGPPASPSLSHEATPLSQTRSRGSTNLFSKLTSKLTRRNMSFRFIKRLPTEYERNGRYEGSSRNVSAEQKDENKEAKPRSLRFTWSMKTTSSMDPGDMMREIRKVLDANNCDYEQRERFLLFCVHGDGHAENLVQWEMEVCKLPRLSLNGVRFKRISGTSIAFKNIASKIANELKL
Protocol: as §1

[24] = target: T24, MARK4 (Homo sapiens, UniProt Q96L34); settings: MARK4, 1 uM
T24 construct: purchased Ambit KINOMEscan (DiscoverX)
Protocol: as §1

[25] = target: T25, NEK9 (Homo sapiens, UniProt Q8TD19); settings: NEK9, 1 uM
T25 construct: purchased Ambit KINOMEscan (DiscoverX)
Protocol: as §1

[26] = target: T26, OSR1 (Homo sapiens, UniProt O95747); settings: OSR1, 1 uM
T26 construct: purchased Ambit KINOMEscan (DiscoverX)
Protocol: as §1

[27] = target: T27, PFTK1 (Homo sapiens, UniProt O94921); settings: PFTK1, 1 uM
T27 construct: purchased Ambit KINOMEscan (DiscoverX)
Protocol: as §1

[28] = target: T28, PIK3CA(E545K) (Homo sapiens, UniProt P42336, E545K); settings: 1 uM
T28 construct: purchased Ambit KINOMEscan (DiscoverX)
Protocol: as §1

[29] = target: T29, PKN1 (Homo sapiens, UniProt Q16512); settings: PKN1, 1 uM
T29 construct: purchased Ambit KINOMEscan (DiscoverX)
T29 sequence (Q16512 whole entry): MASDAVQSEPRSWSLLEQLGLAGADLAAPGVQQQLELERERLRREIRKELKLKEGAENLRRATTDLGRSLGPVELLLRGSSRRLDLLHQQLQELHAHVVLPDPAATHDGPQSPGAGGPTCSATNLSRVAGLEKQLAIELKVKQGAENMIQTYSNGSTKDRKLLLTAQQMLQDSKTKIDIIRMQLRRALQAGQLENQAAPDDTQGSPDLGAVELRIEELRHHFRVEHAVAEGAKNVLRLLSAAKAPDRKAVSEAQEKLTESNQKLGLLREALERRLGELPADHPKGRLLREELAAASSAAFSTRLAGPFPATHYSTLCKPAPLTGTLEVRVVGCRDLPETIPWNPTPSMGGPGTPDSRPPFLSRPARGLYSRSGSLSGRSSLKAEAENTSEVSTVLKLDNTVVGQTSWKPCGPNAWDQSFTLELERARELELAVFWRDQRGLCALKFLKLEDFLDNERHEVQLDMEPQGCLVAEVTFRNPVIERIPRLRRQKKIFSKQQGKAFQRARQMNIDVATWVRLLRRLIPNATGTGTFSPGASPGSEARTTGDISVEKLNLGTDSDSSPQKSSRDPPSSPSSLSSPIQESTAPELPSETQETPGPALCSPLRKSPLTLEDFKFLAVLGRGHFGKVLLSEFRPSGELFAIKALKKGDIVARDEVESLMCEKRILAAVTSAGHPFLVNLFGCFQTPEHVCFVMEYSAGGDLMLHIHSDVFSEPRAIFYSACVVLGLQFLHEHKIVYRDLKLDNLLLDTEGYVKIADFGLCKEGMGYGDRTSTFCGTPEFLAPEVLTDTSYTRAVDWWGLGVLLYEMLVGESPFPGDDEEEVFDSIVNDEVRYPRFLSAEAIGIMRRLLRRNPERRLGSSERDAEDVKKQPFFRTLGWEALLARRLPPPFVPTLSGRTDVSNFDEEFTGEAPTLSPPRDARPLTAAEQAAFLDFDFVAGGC
Protocol: as §1

[30] = target: T30, PLK1 (Homo sapiens, UniProt P53350); settings: PLK1, 1 uM
T30 construct: purchased Ambit KINOMEscan (DiscoverX)
Protocol: as §1

[31] = target: T31, PRKCH (Homo sapiens, UniProt P24723); settings: 1 uM
T31 construct: purchased Ambit KINOMEscan (DiscoverX)
Protocol: as §1

[32] = target: T32, PRKD2 (Homo sapiens, UniProt Q9BZL6); settings: PRKD2, 1 uM
T32 construct: purchased Ambit KINOMEscan (DiscoverX)
Protocol: as §1

[33] = target: T33, PRKG2 (Homo sapiens, UniProt Q13237); settings: PRKG2, 1 uM
T33 construct: purchased Ambit KINOMEscan (DiscoverX)
Protocol: as §1

[34] = target: T34, QSK (Homo sapiens, UniProt Q9Y2K2); settings: 1 uM
T34 construct: purchased Ambit KINOMEscan (DiscoverX)
Protocol: as §1

[35] = target: T35, SYK (Homo sapiens, UniProt P43405); settings: for % binding compared to no inhibitor control: 1 uM
T35 construct: purchased Ambit KINOMEscan (DiscoverX)
Protocol: as §1

[36] = target: T36, TAO1 (Homo sapiens, UniProt Q9UL54); settings: TAO1, 1 uM
T36 construct: purchased Ambit KINOMEscan (DiscoverX)
T36 sequence (Q9UL54 whole entry): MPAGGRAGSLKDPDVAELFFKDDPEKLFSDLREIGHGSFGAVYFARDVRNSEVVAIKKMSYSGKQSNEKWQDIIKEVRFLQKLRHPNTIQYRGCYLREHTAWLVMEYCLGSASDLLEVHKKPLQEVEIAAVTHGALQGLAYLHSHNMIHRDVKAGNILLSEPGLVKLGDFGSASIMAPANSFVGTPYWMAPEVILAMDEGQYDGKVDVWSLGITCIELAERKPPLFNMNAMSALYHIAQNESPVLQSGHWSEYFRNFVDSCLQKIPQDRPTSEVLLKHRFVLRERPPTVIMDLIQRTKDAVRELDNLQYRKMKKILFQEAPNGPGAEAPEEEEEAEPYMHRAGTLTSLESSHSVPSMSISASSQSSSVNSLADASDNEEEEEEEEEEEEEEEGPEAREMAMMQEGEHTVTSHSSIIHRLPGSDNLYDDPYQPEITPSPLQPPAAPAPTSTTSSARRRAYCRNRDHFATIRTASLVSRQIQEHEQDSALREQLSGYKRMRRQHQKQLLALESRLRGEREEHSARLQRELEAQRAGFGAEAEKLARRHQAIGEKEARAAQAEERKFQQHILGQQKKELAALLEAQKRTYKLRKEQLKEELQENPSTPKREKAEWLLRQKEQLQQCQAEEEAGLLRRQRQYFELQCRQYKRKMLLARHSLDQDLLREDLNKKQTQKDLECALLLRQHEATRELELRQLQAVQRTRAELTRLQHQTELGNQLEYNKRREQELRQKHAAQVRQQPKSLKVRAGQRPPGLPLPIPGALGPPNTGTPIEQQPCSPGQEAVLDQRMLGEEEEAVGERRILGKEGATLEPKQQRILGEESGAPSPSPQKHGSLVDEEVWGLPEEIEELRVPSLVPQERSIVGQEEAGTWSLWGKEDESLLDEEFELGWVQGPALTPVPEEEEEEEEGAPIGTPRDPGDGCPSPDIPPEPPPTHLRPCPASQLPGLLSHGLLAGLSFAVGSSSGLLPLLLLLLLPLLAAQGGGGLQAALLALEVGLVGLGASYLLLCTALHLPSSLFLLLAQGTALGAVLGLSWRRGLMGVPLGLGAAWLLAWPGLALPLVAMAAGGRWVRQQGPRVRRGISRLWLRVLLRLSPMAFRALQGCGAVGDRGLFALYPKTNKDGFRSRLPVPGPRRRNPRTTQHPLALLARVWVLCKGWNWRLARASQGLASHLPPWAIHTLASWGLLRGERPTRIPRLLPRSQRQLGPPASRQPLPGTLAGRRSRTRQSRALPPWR
Protocol: as §1

[37] = target: T37, TESK1 (Homo sapiens, UniProt Q15569); settings: TESK1, 1 uM
T37 construct: purchased Ambit KINOMEscan (DiscoverX)
Protocol: as §1

[38] = target: T38, TYRO3 (Homo sapiens, UniProt Q06418); settings: TYRO3, 1 uM
T38 construct: purchased Ambit KINOMEscan (DiscoverX)
Protocol: as §1

[39] = target: T39, ULK2 (Homo sapiens, UniProt Q8IYT8); settings: ULK2, 1 uM
T39 construct: purchased Ambit KINOMEscan (DiscoverX)
Protocol: as §1

[40] = target: T40, p38-gamma (Homo sapiens, UniProt P53778); settings: 1 uM
T40 construct: purchased Ambit KINOMEscan (DiscoverX)
T40 sequence (P53778 whole entry): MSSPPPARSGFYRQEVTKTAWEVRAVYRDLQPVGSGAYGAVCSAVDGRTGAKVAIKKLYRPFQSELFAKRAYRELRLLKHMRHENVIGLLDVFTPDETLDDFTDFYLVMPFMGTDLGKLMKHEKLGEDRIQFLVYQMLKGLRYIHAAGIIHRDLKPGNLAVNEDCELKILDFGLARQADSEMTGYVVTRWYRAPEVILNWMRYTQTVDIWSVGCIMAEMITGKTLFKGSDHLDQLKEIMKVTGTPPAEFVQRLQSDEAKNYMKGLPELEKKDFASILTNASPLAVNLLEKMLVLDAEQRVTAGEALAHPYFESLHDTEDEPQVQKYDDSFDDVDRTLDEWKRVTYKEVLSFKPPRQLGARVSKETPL
Protocol: as §1

With `COc1ccccc1Nc1nc(-c2ccc(OC)c(OC)c2)cc2nccn12` [BAY derivative 6] the “% binding compared to no inhibitor control” value [1] was 98%, the “% binding compared to no inhibitor control” value [2] was 91% and the “% binding compared to no inhibitor control” value [3] was 100%. The “% binding compared to no inhibitor control” value [4] was 68%, the “% binding compared to no inhibitor control” value [5] was 87% and the “% binding compared to no inhibitor control” value [6] was 60%. For the same compound, the “% binding compared to no inhibitor control” value [7] was 96%, the “% binding compared to no inhibitor control” value [8] was 100% and the “% binding compared to no inhibitor control” value [9] was 100%. The “% binding compared to no inhibitor control” value [10] was 100%, the “% binding compared to no inhibitor control” value [11] was 100% and the “% binding compared to no inhibitor control” value [12] was 100%. The “% binding compared to no inhibitor control” value [13] was 99%, the “% binding compared to no inhibitor control” value [14] was 56% and the “% binding compared to no inhibitor control” value [15] was 70%. The “% binding compared to no inhibitor control” value [16] was 54%, the “% binding compared to no inhibitor control” value [17] was 98% and the “% binding compared to no inhibitor control” value [18] was 89%. The “% binding compared to no inhibitor control” value [19] was 100%, the “% binding compared to no inhibitor control” value [20] was 41% and the “% binding compared to no inhibitor control” value [21] was 53%. The “% binding compared to no inhibitor control” value [22] was 99%, the “% binding compared to no inhibitor control” value [23] was 100% and the “% binding compared to no inhibitor control” value [24] was 75%. For the same compound, the “% binding compared to no inhibitor control” value [25] was 100%, the “% binding compared to no inhibitor control” value [26] was 100% and the “% binding compared to no inhibitor control” value [27] was 100%. For the same compound, the “% binding compared to no inhibitor control” value [28] was 100%, the “% binding compared to no inhibitor control” value [29] was 100% and the “% binding compared to no inhibitor control” value [30] was 100%. The “% binding compared to no inhibitor control” value [31] was 100%, the “% binding compared to no inhibitor control” value [32] was 100% and the “% binding compared to no inhibitor control” value [33] was 100%. The “% binding compared to no inhibitor control” value [34] was 87%, the “% binding compared to no inhibitor control” value [35] was 48% and the “% binding compared to no inhibitor control” value [36] was 96%. The “% binding compared to no inhibitor control” value [37] was 100%, the “% binding compared to no inhibitor control” value [38] was 67% and the “% binding compared to no inhibitor control” value [39] was 86%. For the same compound, the “% binding compared to no inhibitor control” value [40] was 56%.

In the case of `COc1ccc(-c2cc3nccn3c(Nc3ncccc3C(N)=O)n2)cc1OC.Cl.Cl` [BAY61-3606, 2-[7-(3,4-dimethoxyphenyl)-imidazo [1,2-c]pyrimidin-5-ylamino] nicotinamide dihydrochloride, reference compound], the “% binding compared to no inhibitor control” value [1] is reported as 78%, the “% binding compared to no inhibitor control” value [2] is reported as 93% and the “% binding compared to no inhibitor control” value [3] is reported as 21%. The “% binding compared to no inhibitor control” value [4] was 69%, the “% binding compared to no inhibitor control” value [5] was 46% and the “% binding compared to no inhibitor control” value [6] was 50%. The “% binding compared to no inhibitor control” value [7] was 64%, the “% binding compared to no inhibitor control” value [8] was 100% and the “% binding compared to no inhibitor control” value [9] was 62%. The “% binding compared to no inhibitor control” value [10] was 78%, the “% binding compared to no inhibitor control” value [11] was 71% and the “% binding compared to no inhibitor control” value [12] was 24%. The “% binding compared to no inhibitor control” value [13] was 100%, the “% binding compared to no inhibitor control” value [14] was 17% and the “% binding compared to no inhibitor control” value [15] was 83%. For the same compound, the “% binding compared to no inhibitor control” value [16] was 80%, the “% binding compared to no inhibitor control” value [17] was 29% and the “% binding compared to no inhibitor control” value [18] was 37%. The “% binding compared to no inhibitor control” value [19] was 100%, the “% binding compared to no inhibitor control” value [20] was 87% and the “% binding compared to no inhibitor control” value [21] was 83%. The “% binding compared to no inhibitor control” value [22] was 100%, the “% binding compared to no inhibitor control” value [23] was 100% and the “% binding compared to no inhibitor control” value [24] was 88%. For the same compound, the “% binding compared to no inhibitor control” value [25] was 90%, the “% binding compared to no inhibitor control” value [26] was 100% and the “% binding compared to no inhibitor control” value [27] was 100%. The “% binding compared to no inhibitor control” value [28] was 100%, the “% binding compared to no inhibitor control” value [29] was 47% and the “% binding compared to no inhibitor control” value [30] was 98%. For the same compound, the “% binding compared to no inhibitor control” value [31] was 58%, the “% binding compared to no inhibitor control” value [32] was 53% and the “% binding compared to no inhibitor control” value [33] was 70%. For the same compound, the “% binding compared to no inhibitor control” value [34] was 100%, the “% binding compared to no inhibitor control” value [35] was 6.1% and the “% inhibition ATP binding” value ([35]; KINOMEscan, 1 μM) was 93.9%. The “% binding compared to no inhibitor control” value [36] was 100%, the “% binding compared to no inhibitor control” value [37] was 90% and the “% binding compared to no inhibitor control” value [38] was 94%. The “% binding compared to no inhibitor control” value [39] was 69% and the “% binding compared to no inhibitor control” value [40] was 47%.
